Laboratory results as given in patent US10655105B2, “Method for proliferation of pancreatic progenitor cells” (Takeda Pharmaceutical Company Limited, priority 2014, dated 2020).

Assays:
[1] = test system: 297L1 cell-derived pancreatic progenitor cells (passage number: 7); conditions: Stem Cell Research 2012, 8, 274-284; cited from earlier work
[2] = test system: 297L1 cell-derived pancreatic progenitor cells (passage number: 7); experiment: Differentiation induction of insulin-producing cells from proliferated pancreatic progenitor cells, NKX6.1/INSULIN immunofluorescence staining; type: cell-based, human; conditions: cultured 9 days in IMEM-option Zn++ medium with 1% B-27; FIG. 9
From the text: Study was made on whether the proliferated and repetitively passaged pancreatic progenitor cells would have the ability to differentiate into INSULIN-producing cells. The cells used were 297L1 cell-derived pancreatic progenitor cells (passage number: 7). The pancreatic progenitor cells brought to a single cell state using Accutase were inoculated at 6×10^4 cells/well to a 96-well plate coated with Matrigel. The culture solution used was IMEM-option Zn^++ medium (containing 1% B-27®) supplemented with XAV939 (1 μM), Y27632 (10 μM), and bFGF (50 ng/ml). The cells were cultured for 2 days to render the cell density confluent. Then, the cells were washed with IMEM-option Zn^++ medium and then cultured for 9 days using IMEM-option Zn^++ medium (containing 1% B-27®) supplemented with ALKS inhibitor II. […] 4% PFA was added to the cells thus cultured, and the cells were fixed at room temperature for 30 minutes. The cells were further reacted with an anti-NKX6.1 antibody and an anti-INSULIN antibody (DAKO, A0564) as primary antibodies and further with an Alexa 488-labeled secondary antibody or an Alexa 568-labeled secondary antibody as a secondary antibody, sequentially, and then observed under a fluorescence microscope.

[3] = test system: PDX1-positive cells differentiation-induced from human iPS cell line 253G1; experiment: Induction of pancreatic progenitor cells from PDX1-positive cells (253G1 iPS-derived), anti-PDX1/anti-NKX6.1 immunofluorescence staining; type: cell-based; conditions: cultured 7 days, IMEM-option Zn++ medium with 1% B-27; XAV939 1 μM and/or bFGF 100 ng/ml; FIG. 1
Method: The PDX1-positive cells differentiation-induced on a Matrigel-coated dish according to Reference Example 1 were washed with IMEM-option Zn^++ medium and then further cultured for 7 days in IMEM-option Zn^++ medium (containing 1% B-27®) supplemented with XAV939 (1 μM) and/or bFGF (100 ng/ml) (PeproTech, Inc.).
In order to examine the expression of PDX1 and NKX6.1 proteins in the cells thus cultured, immunofluorescence staining was carried out using an anti-PDX1 antibody and an anti-NKX6.1 antibody. […] Then, the cells were reacted with an anti-PDX1 antibody (AF2419, R&D Systems, Inc.) and an anti-NKX6.1 antibody (55F55A12-c, Developmental Studies Hybridoma Bank) as primary antibodies and further with an Alexa 488-labeled secondary antibody or an Alexa 568-labeled secondary antibody (both from Life Technologies Corp.) as a secondary antibody, sequentially, and then observed under a fluorescence microscope.
The PDX1-positive cells differentiation-induced on a Matrigel-coated dish according to Reference Example 1 were washed with IMEM-option Zn^++ medium. […] The cells thus cultured were subjected to the immunofluorescence staining described in Example 1 and observed under a fluorescence microscope.

Compound | induction of INSULIN-positive cells [1] | appearance of INSULIN-positive cells [2] | cells expressing PDX1 and NKX6.1 (immunofluorescence staining) [3]
Cc1cccc(-c2[nH]ncc2-c2ccc3ncccc3n2)n1 [ALKS inhibitor II] | known to induce INSULIN-positive cells | INSULIN-positive cells appeared | –
O=c1[nH]c(-c2ccc(C(F)(F)F)cc2)nc2c1CSCC2 [XAV939, 2-(4-trifluoromethylphenyl)-7,8-dihydro-5H-thiopyrano[4,3-d]pyrimidin-4(3H)-one] | – | – | cells coexpressing PDX1 and NKX6.1 were few in number
bFGF: FGF signal transduction activator, bFGF (FGF2) | – | – | cells coexpressing PDX1 and NKX6.1 were few in number
